Key:
[1] = test system: OA31 (DNA, aptamer) CCACCAACGAGAGTCAGAAAACCATGGTGGG; experiment: electrochemical aptasensor (DPV); details: 150 mM NaCl, 2 mM Mg2+, capture probe P31_14
[2] = test system: OA63 (DNA, aptamer) CCGGGTGGGTGGGTGTGGTCTTGTATTTGATTATGTCTGTCGGCGCTTTTTGGCCCCTTCGTT; experiment: electrochemical aptasensor (DPV); details: 150 mM NaCl, 2 mM Mg2+; 50 mM Tris pH 7.5, 25 °C, 30 min; capture probe P63_8; 5-200 nM OA

| binding ([1]; 50 mM Tris pH 7.5, 4 °C, 5 min, 5-200 nM OA) | binding [2] | binding ([1]; 50 mM Tris pH 7.5, sensitivity 2 times lower than for OA) | Structure (SMILES) |
| --- | --- | --- | --- |
| yes | yes | – | C=C1[C@@H](O)[C@@H]2O[C@]3(CC[C@H](/C=C/[C@@H](C)[C@@H]4CC(C)=C[C@@]5(O[C@H](C[C@@](C)(O)C(=O)O)CC[C@H]5O)O4)O3)CC[C@H]2O[C@@H]1[C@@H](O)C[C@H](C)[C@H]1O[C@@]2(CCCCO2)CC[C@H]1C |
| – | – | yes | C=C1[C@@H](O)[C@@H]2O[C@]3(CC[C@H](/C=C/[C@@H](C)[C@@H]4CC(C)=C[C@@]5(O[C@H](C[C@@](C)(O)C(=O)O)CC[C@H]5O)O4)O3)CC[C@H]2O[C@@H]1[C@@H](O)C[C@H](C)[C@H]1O[C@@]2(CC[C@H]1C)OCCC[C@H]2C |

From article PMC12562321 (2025)
